Data from US5593835A, “Methods and kits for RNA binding compounds” (President and Fellows of Harvard College, priority 1995, dated 1997).
Like-named read-outs stand apart in the source and are kept apart here.

Key:
RRE region of HIV RNA = test: Fluorescence binding and competitive binding to RRE RNA; conditions: competition, 100 nM RNA, 15 nM fluorescent tobramycin, 20° C., pH 7.4; read-out: Dissociation Constant (KD) RRE RNA
Protocol: (§1) In order to quantitatively determine whether fluorescently labelled tobramycin and other antibiotics bind directly to the RRE region and/or to other regions of the HIV RNA, and with what affinity, the RRE and TAR regions of HIV RNA were prepared and used in the method of the invention as target RNAs.
For binding studies, different concentrations of RRE RNA (from 0 to 300 nm) were mixed with a constant concentration (15 nM) PYT in Binding buffer (140 mM NaCl, 1 mM MgCl2, 20 mM HEPES, pH 7.4), 2 ml total volume, for 1-5 min. at 20° C. in a semimicro-cell cuvette. The fluorescence was measured on a Perkin-Elmer Model 512 double beam fluorescence spectrophotometer. The excitation wavelength used was 330 nm. The intensities of fluorescence emission at 390 nm were used to calculate dissociation constants. Generally 8 to 12 points were used for calculation.
(§2) In other competitive binding studies, TAR or RRE RNA was added at a constant concentration of 100 nM±5% and PYT at 15 nM. Different concentrations of competitive antibiotic (tobramycin (o-60 μM), gentamicin C (0-100 μM), neomycin B (0-4 μM), or lividomycin A (0-100 μM) or Rev protein (0-6 μM) were mixed with constant concentrations of RNA (100 nM TAR or RRE) and C1PYT (15 nM), in Binding buffer (140 mM NaCl, 5 mM KCl, 1 mM MgCl2, 20 mM HEPES, pH 7.4), 2 ml total volume, for 1-5 min. at 20° C. in a semimicrocell cuvette. The fluorescence was measured on a Perkin-Elmer Model 512 double beam fluorescence spectrophotometer. The excitation wavelength used was 330 nm. The intensities of fluorescence emission at 390 nm were used to calculate dissociation constants. Generally 8 to 12 points were used for calculation.
Wild type and mutant RRE RNAs were transcribed in vitro by T7 RNA polymerase using synthetic oligonucleotide templates, as described by Milligan et al. (Meth. Enzymol. (1989) 180: 51-62).
(§3) Competition binding measurements of antibiotics with RNA and PYT were performed at constant concentrations of PYT and RNA by monitoring fluorescence intensity changes as a function of changing concentrations of the antibiotics (a standard fluorescence curve). The KD s for the antibiotics were calculated by the curve fitting of the fluorescence intensity of PYT as a function of antibiotic concentration, using the following equation: […]

[1] = biological target: W13 RNA having SEQ ID NO:1; test: Fluorescence (PYT quenching) titration and competition binding to W13 RNA; conditions: fluorescence; competition with PYT (150 nM PYT, 300 nM W13), 20° C., pH 7.4; N.B. = no measurable binding
Protocol: To study the binding behavior of clone W13, a fluorescently labelled pyrene-conjugated tobramycin derivative "PYT" was prepared.
For competitive binding studies, different concentrations of antibiotic (glucosamine (0-10 mM), erythromycin (0-6 mM), gentamicin C (0-700 μM), or neomycin B (0-650 μM)), were mixed with constant concentrations of RNA (300 nM W13) and PYT (150 nM), in Binding buffer (140 mM NaCl, 5 mM KCl, 1 mM MgCl2, 1 mM CaCl2, 20 mM HEPES, pH 7.4), 750 μl total volume, for 1-5 min. at 20° C. in a semimicro-cell cuvette. The fluorescence was measured on a Perkin-Elmer Model 512 double beam fluorescence spectrophotometer. The excitation wavelength used was 341 nm. The intensities of fluorescence emission at 380 nm were used to calculate dissociation constants. Generally 8 to 10 points were used for calculation.
(§4) Steady state fluorescence measurements were performed on a double beam fluorescence spectrometer (Perkin-Elmer Model 512, Norwalk, Conn.). The excitation wavelength was 341 nm. All measurements were done at 20° C. in 140 mM NaCl, 5 mM KCl, 1 mM CaCl2, 1 mM MgCl2, and 20 mM HEPES, pH 7.4. The KD of the PYT and the RNA aptamer was calculated by the curve fitting of the fluorescence intensity as a function of RNA concentration, using the following equation
(assuming a 1:1 complex): I=Io +0.5Δε ([PYT]o
-(([PYT]o +[RNA]o KI)^2 -4[PYT]o [RNA]o)^0.5)
Competition binding measurements of antibiotics with RNA and PYT were performed at constant concentrations of PYT and RNA by monitoring fluorescence intensity changes as a function of changing concentrations of the antibiotics (a standard fluorescence curve). The KD s for the antibiotics were calculated by the curve fitting of the fluorescence intensity of PYT as a function of antibiotic concentration, using the following equation:
I=Io +Δε[PYT.circle-solid.RNA]
[PYT.circle-solid.RNA]=0.5(([PYT]o +[RNA]o)([RNA]o
+KD)+KI ([T]o +[RNA]o +KD)-((([PYT]o
+[RNA]o)([RNA]o +KD)+KI ([T]o +[RNA]o
+KD))^2 -4([RNA]o +KD) [PYT]o [RNA]o
([RNA]o +KD))^0.5)([RNA]o +KD) (equation 2)
KD and KI are the dissociation constants for the antibiotic and PYT respectively.
[T]o is the total concentration of antibiotic added. Measurements were taken at least twice for each measured KD.

[2] = biological target: clone W13 RNA (SEQ ID NO:1), tobramycin-selected RNA aptamer; test: Equilibrium dialysis binding to clone W13 RNA; conditions: competition studies with 3H-acetyl tobramycin; read-out: dissociation constant
Protocol: One of these RNAs, clone W13 (SEQ ID NO:1) was chosen for quantitative studies to determine the specificity of its binding to RNA. […] The dissociation constant for tobramycin was determined to be 3 μM by competition studies with ^3 H-acetyl tobramycin. These values are close to those measured for tobramycin and ^3 H-acetyl tobramycin binding to ribosomal targets (LeGoffic et al. (1979) Eur. J. Biochem. 102: 73-81).
Equilibrium dialysis measurements were performed according to the procedure of Lorsch et al. (Biochem. (1994) 33: 973-982).

[3] = biological target: X1 RNA (SEQ ID NO: 3 in Table 3; SEQ ID NO:2 in text); test: Fluorescence binding measurements, X1 RNA
Protocol: The binding of tobramycin to two cloned RNAs X1 (SEQ ID NO:2) and J6 (SEQ ID NO:5), representative of both classes of consensus sequences, was measured using the fluorescence techniques described in the exemplification.
as §4, §3

TAR region of HIV RNA = test: Fluorescence binding and competitive binding to TAR RNA; conditions: competition, 100 nM RNA, 15 nM fluorescent tobramycin, 20° C., pH 7.4; read-out: Dissociation Constant (KD) TAR RNA
Protocol: as §1, §2
Competition binding measurements of antibiotics with RNA and PYT were performed at constant concentrations of PYT and RNA by monitoring fluorescence intensity changes as a function of changing concentrations of the antibiotics (a standard fluorescence curve). […]

Q: For `NC[C@H]1O[C@H](O[C@H]2[C@H](O)[C@@H](O[C@H]3O[C@H](CO)[C@@H](O)[C@H](N)[C@H]3O)[C@H](N)C[C@@H]2N)[C@H](N)C[C@@H]1O` [tobramycin], which Kd (RRE region of HIV RNA) is on record?
A: 2.32 ± 0.28 µM

Q: And the Kd [1]?
A: 4.3 ± 0.7 µM

Q: And the Kd [2]?
A: 3 µM

Q: And the Kd ([3]; K1 - high affinity, read-out: Dissociation Constants K1(TOB))?
A: 0.003 ± 0.001 µM

Q: And the Kd ([3]; K2 - low affinity, read-out: Dissociation Constants K2(TOB))?
A: 15.9 ± 0.7 µM

Q: And the Kd (TAR region of HIV RNA)?
A: 19.1 ± 1.1 µM
